US20240058240A1, “COMPOUNDS AS SELF-TANNING SUBSTANCES AND TANNING COMPOSITIONS THEREOF” (CHEMCOM S.A., priority 2020, published 2024)

Columns and labels:
[1] = target: T1, OR7C1 (Homo sapiens, UniProt O76099); experiment: Luciferase-based CRE gene reporter assay, dose-response on OR7C1; assay type: cell-based; conditions: negative logarithm of the EC50 in Moles; semi-logarithmic dilutions from 1 mM to 316 nM on OR7C1
T1 construct: transfected with a plasmid containing the CRE-luciferase and a plasmid containing the olfactory receptor; expressed in transfected cells; host or cells: HEK293T-RTP1A1/RTP2 (HEK293T stably expressing the chaperones RTP1A1 and RTP2)
T1 sequence (O76099 1-320): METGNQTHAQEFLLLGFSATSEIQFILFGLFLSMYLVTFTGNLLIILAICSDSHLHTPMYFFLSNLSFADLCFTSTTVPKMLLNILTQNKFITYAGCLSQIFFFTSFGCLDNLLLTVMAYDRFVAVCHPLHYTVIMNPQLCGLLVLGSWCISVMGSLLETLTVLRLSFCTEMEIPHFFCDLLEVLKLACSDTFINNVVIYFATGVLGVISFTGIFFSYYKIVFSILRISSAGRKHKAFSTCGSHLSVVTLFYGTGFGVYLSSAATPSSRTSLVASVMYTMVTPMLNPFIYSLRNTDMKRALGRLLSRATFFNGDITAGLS
Description: HEK293T-RTP1A1/RTP2 cells were maintained in minimal essential medium (EMEM, Lonza) containing 10% fetal bovine serum (M10). These cells were generated by transfecting HEK293T (Thermofisher Scientific, cat ref: R70007) with an expression vector containing the sequences of the chaperone proteins RTP1A1 and RTP2 and a resistance gene to puromycin, using Lipofectamine 2000. The recombinant cell population, used in these experiments, was selected by adding 10 μg/ml of puromycin into the culture medium and subsequently subcloned (WO 2014/191047 A1).
Potential OR7C1 agonists were diluted at a concentration of 1 mole/liter (M) into an organic solvent such as Dimethyl Sulfoxide (DMSO) or Ethanol to generate stock solutions. […]
For concentration-response analysis, serial dilutions of the tested molecules were prepared from stock solutions in EMEM plated into 96-well plates.
For the dose-response analysis, a Luciferase-based gene reporter assay (Promega, Leiden, the Netherlands) was used. Briefly, cells were platted on poly-D-lysine-coated 96-well plates and transfected with a plasmid containing the CRE-luciferase and a plasmid containing the olfactory receptor. Sixteen hours after transfection, the culture medium was replaced by serum-free EMEM containing the tested compounds at a determined concentration. After four hours of incubation at 37° C., cells were lysed and processed for luminescence measurement. Luminescence emission was recorded. Results were expressed as luciferase activity ([…] (RLU)) or as percentage of the response induced by 10 μM of the adenylate cyclase activator Forskolin. An empty plasmid is used as negative control.
Dose-response analyses using the luciferase-based reporter assay were performed using semi-logarithmic serial dilutions of the compounds, from 1 mM to 316 nM, on OR7C1. 46 compounds were tested in concentration-response analyses. In each experiment, an empty vector (pEFIBRHO) was used as negative control. Values are given as the negative logarithm of the EC50 in Moles.

[2] = tested on: Normal Human Epidermal Melanocytes moderately pigmented (NHEMs-MP); experiment: Melanin content (pigmentation) of NHEMs-MP in culture; assay type: cell-based; conditions: 3.16 μM, 4 days, NHEMs-MP, in comparison with DOPA (50 μM)
Description: This primary culture was cultivated in medium M254 supplemented (LIFE TECHNOLOGIES; ref:M-254-500) with HMGS (human melanocyte growth supplement; LIFE TECHNOLOGIES; ref: S-002-5) and gentamycin (LIFE TECHNOLOGIES; ref:15710-049) and maintained in a humidified incubator at 37° C. with a 5% CO2 atmosphere. For experiments (see below), cells were seeded at a density of 9×10^4 cells/well (100 μL/well) and cultured at 37° C. under a 5% CO2.
The NHEMs-MP were treated for 4 days, with a medium refresh after 2 days of treatment—Amberketal, Ambermax and with the reference molecule (L-DOPA)—when the culture media are collected and stored at −80° C. as shown in FIG. 2. At the end of the treatments, the culture media were collected a second time, pooled with the media collected at day 2 and centrifuged for 30 minutes (14000 rpm). The pellet obtained after centrifugation and NHEMs-MP treated cells were lysed in 150 μl of a NaOH 1M solution. 5 μl of each cell lysate were used for protein quantification using BCA protein assay. The remaining 145 μl of the lysates were heated at 80° C. during 1 h. The optical density was measured at 490 nm and the melanin content was determined by comparison with a standard curve of synthetic melanin and reported to the quantity of protein present in each cell well tested.
The effects of these 2 compounds, namely Ambermax and Amberketal, on the melanin production were evaluated as described above. Based on MTS results, moderately pigmented (MP) NHEMs were treated with these 2 compounds at one concentration (100 μM for Amberketal and 3.16 μM for Ambermax) for 4 days. In parallel, cell cultures were also treated with Ethanol 0.1%, a concentration corresponding to the test compounds solvent, and with a known modulator of pigmentation (L-DOPA 50 μM). […] At the end of the treatments (D4), cells were lysed, the melanin content was quantified by spectrophotometry and normalized to the amount of proteins. Extracellular melanin was also evaluated by the same methodology after centrifugation of the culture media.

-LogEC50 (average n > 3) [1]: > 8
Substance: Ambermax [Compound 16]
increase of melanin present in the media (extracellular) ([2]; p<0.01, n=10): +123% | increase of intracellular melanin content ([2]; p<0.01, n=12): +46%
